A word on the IC50: it is the concentration needed to halve the response being measured.

Results on twelve compounds are retold here after patent publication US11623919B2, “Heterocyclic P2X7 antagonists” (AXXAM S.P.A., priority 2017, dated 2023).

Where only a bound is given, the exact number is not on record here.

Format in all cases: cell-based
Test [1] addresses T1, P2X7 receptor (Homo sapiens, UniProt Q99572).
T1 sequence (Q99572 1-595): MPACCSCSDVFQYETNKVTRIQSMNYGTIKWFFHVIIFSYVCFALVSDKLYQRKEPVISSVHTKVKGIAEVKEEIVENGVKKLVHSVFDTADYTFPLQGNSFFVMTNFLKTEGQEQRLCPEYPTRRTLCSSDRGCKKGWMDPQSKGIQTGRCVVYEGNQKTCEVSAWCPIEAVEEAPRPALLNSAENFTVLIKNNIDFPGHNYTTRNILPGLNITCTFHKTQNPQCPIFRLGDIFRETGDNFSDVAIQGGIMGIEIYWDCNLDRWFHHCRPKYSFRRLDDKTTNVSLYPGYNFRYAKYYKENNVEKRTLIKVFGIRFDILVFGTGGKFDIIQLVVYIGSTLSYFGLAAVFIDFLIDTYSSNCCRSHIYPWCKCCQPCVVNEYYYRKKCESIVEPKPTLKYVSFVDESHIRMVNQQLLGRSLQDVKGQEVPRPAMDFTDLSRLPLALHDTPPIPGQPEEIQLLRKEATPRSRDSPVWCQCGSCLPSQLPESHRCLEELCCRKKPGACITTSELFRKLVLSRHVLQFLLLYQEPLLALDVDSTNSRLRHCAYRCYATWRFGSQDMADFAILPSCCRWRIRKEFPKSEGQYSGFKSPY
Description: Screen Quest Fluo-8 No Wash Calcium Assay (Bz-ATP evoked Ca2+ influx, FLIPR). Further details: hP2X7 (IC50; nM); other: hP2X7; HEK-293 cells stably transfected with P2X7 receptor, Bz-ATP at EC80, Fluo-8 NW; potency. The settings on record: hP2X7; HEK-293 cells stably transfected with P2X7 receptor, Bz-ATP at EC80, Fluo-8 NW; potency ranges A-D. A digest of the protocol:
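Compounds were added to Fluo-8-loaded P2X7-transfected HEK-293 cells 5 min before an EC80 Bz-ATP challenge, and Ca2+ influx was then recorded for 3 min. Buffer held 0.3 mM Ca2+ and no Mg2+. Inhibition was normalised to A438079, giving IC50 values.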

Test [2] concerns the target T1, P2X7 receptor. Description: YO-PRO-1 uptake assay. On the set-up: expressed in transfected cells. As to conditions: HEK-293 cells stably transfected with P2X7 receptor; Bz-ATP EC80 (30 μM); Low Divalent Cation Assay Buffer. From the text:
YO-PRO®-1 is a fluorescent DNA-binding dye with a MW of 374 Da (Molecular Probes®, cat. Y3603). This method is based upon the presumed ability of YO-PRO®-1 to enter through the dilated or “large pore form” of P2X7 receptor and to bind to intracellular DNA whereupon it increases many fold its fluorescence intensity. The dye ha an absorption spectrum compatible with excitation at 488 nm by argon laser sources and its emission wavelength is in the range of 515-575 nm. The aim of this assay was to validate the interaction of antagonists with P2X7 receptor using an alternative readout to Ca2+-sensitive fluorescent dyes.
HEK-293 cells stably transfected with P2X7 receptor were seeded overnight un growth medium at 20,000 cell/well in 384-well plate. 24 hours later, the medium was removed, the cells were washed with Low Divalent Cation Assay Buffer (0.3 mM Ca^2+ and 0 mM Mg^2+) and then pre-loaded with 20 μL/w of 5 μM YO-PRO®-1 dye.
FLIPRTETRA fluorescence measurement immediately started. Then 10 μL/w of test compounds and reference antagonist A438079 at 3×-concentration were injected with the FLIPRTETRA and the kinetic response over a period of five minutes was monitored. A second injection of 10 μL/w of 3× Bz-ATP EC80 (30 μM) was performed with the FLIPRTETRA and the signal of the emitted fluorescence was recorded for additional 60 minutes. All the experiment was carried out with a Low Divalent Cation Assay Buffer (0.3 mM Ca^2+ and 0 mM Mg^2+).
The effect of the test compounds was measured as percent inhibition vs the reference antagonist and IC50 values were calculated accordingly.

Test [3] has as its target T1, P2X7 receptor. Description: Automated patch-clamp (QPatch16X) P2X7 channel assay. Further details: expressed in transfected cells; host or cells: HEK-293. As to conditions: HEK-293 cells expressing P2X7 channels; whole-cell, held at -80 mV; 100 microM BzATP; compound 1, 10, 100 and 1000 nM; read-out: Q-Patch (IC50). The protocol: In order to directly monitor the block of P2X7 channel, an electrophysiological assay was developed and implemented on the QPatch16X automated electrophysiology instrument.
HEK-293 cells expressing the P2X7 channels were cultured in modified EMEM.
72 hours before experiment, 5 million cells were seeded onto T225 flasks. Just before the experiment cells were washed twice, detached from the flask with trypsin-EDTA, re-suspended in the suspension solution and placed on the QPatch 16x.
The compounds (20 mM in a 100% DMSO) stored at −20° C. were prepared the day of the experiment (a first dilution 1:20 in 100% DMSO to prepare a 1 mM stock solution, then a 1 microM solution in external solution+a serial dilution 1:10).
The standard whole-cell voltage clamp experiments were performed at room temperature. From these experiments the multihole technology was used and the data were sampled at 2 KHz.
The intracellular solution contained (mM) 135 CsF, 10 NaCl, 1 EGTA, 10 HEPES, (pH 7.2 with CsOH) whereas the extracellular contained (mM) 145 NaCl, 4 KCl, 0.5 MgCl2, 1 CaCl2, 10 HEPES, 10 Glc (pH 7.4 with NaOH).
After establishment of the seal and the passage in the whole cell configuration, the cells were held at −80 mV. The P2XR7 current was evoked by applying 100 microM of BzATP alone (4 times) and then in the presence increasing concentrations of the compound under investigation (1, 10, 100 and 1000 nM).
The pre-incubation periods 5 to 8 contain increasing concentrations of the compound of interest (1, 10, 100 and 1000 nM), as illustrated in FIGURE (application protocol).
The maximal inward current evoked by BzATP in absence or presence of increasing concentrations of the compounds under investigation was measured and normalized. The potential […] effect was measured as % of control and as IC50 determined fitting the dose-response curves data with the following equation: Y=100/(1+10^((Log IC50−X)*HillSlope))
A general note: In patch-clamp work, channel activity is measured electrically.

For the compound `O=c1onc(Cc2ccccc2C(F)(F)F)n1CC1CCCCC1` [Example 116, 4-(cyclohexylmethyl)-3-{[2-(trifluoromethyl)phenyl]methyl}-4,5-dihydro-1,2,4-oxadiazol-5-one], the figures for the IC50 at P2X7 receptor [1], on P2X7 receptor [2] and at P2X7 receptor [3] were 200 to 1000 nM, 284 nM and 466 nM, respectively.
For `O=c1onc(Cc2cccc(F)c2)n1Cc1c(F)cccc1Cl` [Example 81, 4-[(2-chloro-6-fluorophenyl)methyl]-3-[(3-fluorophenyl)methyl]-4,5-dihydro-1,2,4-oxadiazol-5-one], in that order: 200 to 1000 nM, 619 nM and 292 nM.
For `O=c1onc(Cc2c(F)cccc2Cl)n1CC1CCC(F)(F)CC1` [Example 84, 3-[(2-chloro-6-fluorophenyl)methyl]-4-[(4,4-difluorocyclohexyl)methyl]-4,5-dihydro-1,2,4-oxadiazol-5-one], in that order: < 200 nM, 3.4 nM and 8.43 nM.
For `O=c1onc(Cc2ccccc2Cl)n1CC1CCCCC1` [Example 117, 3-[(2-chlorophenyl)methyl]-4-(cyclohexylmethyl)-4,5-dihydro-1,2,4-oxadiazol-5-one], in that order: 200 to 1000 nM, 143 nM and 94.9 nM.
On to `Cc1noc(C)c1Cc1noc(=O)n1CC1CCCCC1` [Example 210, 4-(cyclohexylmethyl)-3-[(dimethyl-1,2-oxazol-4-yl)methyl]-4,5-dihydro-1,2,4-oxadiazol-5-one], for which the half-maximal inhibitory concentration (IC50) on P2X7 receptor [1] is 200 to 1000 nM; at P2X7 receptor [2], 184 nM; at P2X7 receptor [3], 149 nM.
The like results for `O=c1snc(Cc2c(F)cccc2Cl)n1CC1CCC(F)(F)CC1` [Example 141, 3-[(2-chloro-6-fluorophenyl)methyl]-4-[(4,4-difluorocyclohexyl)methyl]-4,5-dihydro-1,2,4-thiadiazol-5-one] were, in that order, < 200 nM, 31 nM and 3.04 nM.
For `O=c1onc(Cc2ccccc2Cl)n1Cc1ccc(F)cc1` [Example 76, 3-[(2-chlorophenyl)methyl]-4-[(4-fluorophenyl)methyl]-4,5-dihydro-1,2,4-oxadiazol-5-one], in that order: 200 to 1000 nM, 168 nM and 401 nM.
The like results for `O=c1onc(Cc2cccc(Cl)c2Cl)n1CC1CCCCC1` [Example 115, 4-(cyclohexylmethyl)-3-[(2,3-dichlorophenyl)methyl]-4,5-dihydro-1,2,4-oxadiazol-5-one] were, in that order, 200 to 1000 nM, 399 nM and 72.7 nM.
As for `O=c1onc(Cc2c(F)cccc2Cl)n1Cc1cccc(F)c1` [Example 26, 3-[(2-chloro-6-fluorophenyl)methyl]-4-[(3-fluorophenyl)methyl]-4,5-dihydro-1,2,4-oxadiazol-5-one], the IC50 on P2X7 receptor [1] is 200 to 1000 nM; at P2X7 receptor [2] it was 329 nM; on P2X7 receptor [3], 182 nM.
The like results for `O=c1onc(CC2CCC(F)(F)CC2)n1Cc1c(F)cccc1Cl` [Example 132, 4-[(2-chloro-6-fluorophenyl)methyl]-3-[(4,4-difluorocyclohexyl)methyl]-4,5-dihydro-1,2,4-oxadiazol-5-one] were, in that order, < 200 nM, 32 nM and 3.36 nM.
For `O=c1onc(Cc2c(F)cccc2Cl)n1CC1CC2CCC1C2` (stereo not drawn) [Example 88, 4-{bicyclo[2.2.1]heptan-2-ylmethyl}-3-[(2-chloro-6-fluorophenyl)methyl]-4,5-dihydro-1,2,4-oxadiazol-5-one], in that order: < 200 nM, 63 nM and 34.5 nM.
With `O=c1onc(Cc2cccc(Cl)c2Cl)n1Cc1ccc(F)cc1` [Example 71, 3-[(2,3-dichlorophenyl)methyl]-4-[(4-fluorophenyl)methyl]-4,5-dihydro-1,2,4-oxadiazol-5-one], the 50% inhibitory concentration (IC50) on P2X7 receptor [1] was 200 to 1000 nM; on P2X7 receptor [2], 461 nM; on P2X7 receptor [3], 1160 nM.
